This note sets out measurements from US6656911B2, “Serine protease inhibitors” (Cortech, Inc., priority 1994, dated 2003).

The target of data set [1] is T1, human neutrophil elastase (HNE) (Homo sapiens, UniProt P08246).
T1 sequence (P08246 30-267): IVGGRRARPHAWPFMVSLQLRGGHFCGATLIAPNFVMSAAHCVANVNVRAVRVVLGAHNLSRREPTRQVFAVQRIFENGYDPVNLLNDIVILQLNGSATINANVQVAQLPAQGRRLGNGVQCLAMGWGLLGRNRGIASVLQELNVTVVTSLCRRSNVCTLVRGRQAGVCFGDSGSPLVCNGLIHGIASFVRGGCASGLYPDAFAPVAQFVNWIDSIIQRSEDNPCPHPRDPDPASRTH
The data set is described as follows: HNE Ki of CE compounds, tested as described in WO 96/16080. The data set is classed as biochemical. The following applies: read-out: HNE Ki.

Data set [2] deals with polymorphoneucleocyte (PMN). The data set is described as follows: Extracellular Matrix (ECM) degradation assay. The class given is cell-based. As to conditions: PMN's stimulated with opsonized zymosan, 4 hr at 37° C.; for ECM DATA % Inhibition 1 uM / inhibition at 1 µM: 1 uM inhibitor; for ECM DATA % Inhibition 5 uM / inhibition at 5 µM: 5 uM inhibitor. How it is done: Forty-eight well plates on which extracellular matrix had been established were supplied to Cortech by Dr. Simon's group at the State University of New York at Stony Brook. Briefly, the plates were prepared as follows: R22 rat heart smooth muscle cells were seeded into wells at 2.5×10^4 cells/cm. The cells were fed every 4 days with Eagle's Minimal Essential Media supplemented with fetal bovine serum, tryptose phosphate broth, cefotaxime and streptomycin. At confluence, daily supplements of 50 ug/ml ascorbic acid were added for 8 to 10 days during the synthesis of the ECM layer. [^35S]sulfate and [^3H]proline were also added to the culture media to incorporate radiolabel into the matrix. Cells were later lysed with 25 mM NH4OH. Plates were washed three times with water and once with phosphate-buffered saline containing 0.02% NaN3. Plates were stored at 4° C. until use.
Matrix degradation assays were performed as follows: 0.40 ml of Hanks balance salt solution (HBSS) containing 1 or 5 uM test inhibitor (final concentration; diluted from DMSO stock solution; <2% DMSO final concentration) was added to the wells. After 30 minutes, 50 ul of a polymorphoneucleocyte (PMN) suspension was added resulting in 5×10^5 cells/well. PMN's were stimulated with opsonized zymosan. Zymosan particles were washed and suspended in 0.5 ml human serum for 1 hr at 37° C., vortexing every 15 min. The particles were then washed three times with HBSS and added to wells at a ratio of 10 particles/PMN in a volume of 50 ul. After a 4 hr incubation at 37° C., a 100 ul aliquot of the supernatant was withdrawn for scintillation counting. Following removal of the remaining supernatant, the residual ECM was solubilized with 0.5 ml 2M NaOH. The amount of tritium in this solubilized ECM was accessed by scintillation. ECM degradation data are expressed as (soluble counts released/total ECM counts)—(basal counts released without PMN's/total ECM counts).

A short description of data set [3]: Blood level screening after oral dose. The data set is classed as in vivo, Sprague-Dawley rats. As to conditions: rat, oral gavage 10 mg/kg; for concentration at 3 h: read-out: Plasma Levels (μM) 3 hr. How it is done:
The inhibitors were dissolved or suspended in polyethylene glycol (PEG), PEG-400 or PEG:H2O:EtOH at a concentration of 10 mg/ml. Unfasted male Sprague-Dawley rats were given an oral dose of this solution by gavage. Rats received 10 mg inhibitor/kg body weight in a volume of 1 ml/kg. After 1,3 or 6 hr., the rats were killed with an overdose of urethane (2.5 g/kg; i.p.) and the blood collected in a heparinized tube via cardiac puncture. Red blood cells were separated from the plasma by centrifugation.
Depending on the inhibitor, one of four organics (ethyl acetate, toluene, isopropyl ether or methyl t-butyl ether) was used to extract the compound from the plasma. Inhibitor concentrations were measured by HPLC or LC/MS analysis.

A word on the Ki: it is a measure of affinity in units of concentration, obtained from inhibition or displacement. In the case of “2-Oxo-5-methyl-1,4-(2-phenyl-1-thiophenodiazepine)-N-[1-(2-[5-(3-methylbenzyl)-1,3,4-oxadiazolyl]carbonyl)-2-(S)-methylpropyl]acetamide [CE2245]”, the Ki in data set [1] was 24 nM. For the same compound, in data set [2], the “ECM DATA % Inhibition 1 uM” value worked out at 34.7% and the “ECM DATA % Inhibition 5 uM” value is recorded as 39.3%.

One may read the inhibition as the change of the read-out against control, counted positive when it falls. For the compound `Cc1cccc(Cc2nnc(C(=O)[C@@H](NC(=O)Cn3c(-c4ccc(F)cc4)ncc(NC(=O)OCc4ccccc4)c3=O)C(C)C)o2)c1` [CE2095, 2-[5-[(Benzyloxycarbonyl)amino]-6-oxo-2-(4-fluorophenyl)-1,6-dihydro-1-pyrimidinyl]-N-[1-(2-[5-(3-methylbenzyl)-1,3,4-oxadiazolyl]carbonyl)-(S)-2-methylpropyl]acetamide], in data set [1], the Ki amounted to 0.21 nM. Further, in data set [2], the inhibition at 1 µM amounted to 60.4% and the inhibition at 5 µM is 55.6%.

`Cc1cccc(Cc2nnc(C(=O)[C@@H](NC(=O)CN3C(=O)N(Cc4ccccc4)C(=O)[C@H]3Cc3ccccc3)C(C)C)o2)c1` [CE2151, 1-Benzyl-4-(R)-benzyl-2,5-imidazolidinedione-N-[1-(2-[5-(3-methylbenzyl)-1,3,4-oxadiazolyl]carbonyl)-2-(S)-methylpropyl]acetamide]: in data set [1], the Ki came to 59 nM. In addition, in data set [2], the inhibition at 1 µM came out at 14.2% and the inhibition at 5 µM is -8.3%.

Turning to `Cc1cccc(Cc2nnc(C(=O)[C@@H](NC(=O)CN3C(=O)N[C@@H](Cc4ccccc4)C3=O)C(C)C)o2)c1` [CE2154, 5-(S)-Benzyl-2,4-imidazolidinedione-N-[1-(2-[5-(3-methylbenzyl)-1,3,4-oxadiazolyl]carbonyl)-2-(S)-methylpropyl]acetamide], the inhibition constant (Ki) in data set [1] was 10 nM. In data set [2], the inhibition at 1 µM worked out at 54.6% and the inhibition at 5 µM was found to be 65.4%.

As for `Cc1cccc(Cc2nnc(C(=O)[C@@H](NC(=O)[C@@H]3CCCN3C(=O)[C@@H](NC(=O)c3cccnc3)C(C)C)C(C)C)o2)c1` [CE2161, (Pyridyl-3-carbonyl)-L-valyl-N-[1-(2-[5-(3-methylbenzyl)-1,3,4-oxadiazolyl]carbonyl)-2-(S)-methylpropyl]-L-prolinamide], in data set [1], the Ki was found to be 0.082 nM. In data set [2], the inhibition at 1 µM was 25% and the inhibition at 5 µM was 55%.

For the compound `Cc1cccc(Cc2nnc(C(=O)C(NC(=O)CN3C(=O)[C@@H](Cc4ccccc4)N(CCN4CCOCC4)C3=O)C(C)C)o2)c1` (stereo partly drawn) [CE2173, 1-(3-Morpholinoethyl)-5-(R)-benzyl-2,4-imidazolidinedione-N-[1-(2-[5-(3-methylbenzyl)-1,3,4-oxadiazolyl]carbonyl)-2-(R,S)-methylpropyl]acetamide], the Ki in data set [1] was determined as 6.5 nM. In data set [2], the “ECM DATA % Inhibition 1 uM” value is 35.9% and the “ECM DATA % Inhibition 5 uM” value was found to be 47.1%.

As to `Cc1cccc(Cc2nnc(C(=O)C(NC(=O)CN3C(=O)N(Cc4ccccc4)C(=O)[C@@H]3Cc3ccccc3)C(C)C)o2)c1` (stereo partly drawn) [CE2191, 1-Benzyl-4-(S)-benzyl-2,5-imidazolidinedione-N-[1-(2-[5-(3-methylbenzyl)-1,3,4-oxadiazolyl]carbonyl)-2-(R,S)-methylpropyl]acetamide], the Ki in data set [1] was 85 nM. In data set [2], the “ECM DATA % Inhibition 1 uM” value came to 29.35% and the “ECM DATA % Inhibition 5 uM” value is given as 30.5%.

Regarding `Cc1cccc(Cc2nnc(C(=O)C(NC(=O)CN3C(=O)C(c4ccccc4)N(CCN4CCOCC4)C3=O)C(C)C)o2)c1` [CE2192, 1-(N-Morpholinoethyl)-5-(R,S)-phenyl-2,4-imidazolidinedione-N-[1-(2-[5-(3-methylbenzyl)-1,3,4-oxadiazolyl]carbonyl)-2-(R,S)-methylpropyl]acetamide], the Ki in data set [1] was found to be 7.3 nM. Moreover, in data set [2], the inhibition at 1 µM worked out at 40.8% and the inhibition at 5 µM was 49.7%.

On to `Cc1cccc(Cc2nnc(C(=O)[C@@H](NC(=O)CN3C(=O)NC(c4ccncc4)(N4C(=O)CCC4=O)C3=O)C(C)C)o2)c1` (stereo partly drawn) [CE2206, [4-(R,S)-(4-pyridyl)-4-(R,S)-N-succinimidyl-1-2,5-imidazolidinedione-N-[1-2-[5-(3-methylbenzyl)-1,3,4-oxadiazolyl]carbonyl)-2-(S)-methylpropyl]acetamide], for which the inhibitory constant (Ki) in data set [1] is 8.7 nM. Further, in data set [2], the “ECM DATA % Inhibition 1 uM” value is recorded as 47.4% and the “ECM DATA % Inhibition 5 uM” value is 62.3%.

For `COC(=O)N[C@H](C(=O)N1CCC[C@H]1C(=O)N[C@H](C(=O)c1nnc(Cc2cccc(C)c2)o1)C(C)C)C(C)C` [CE2213, Methyloxycarbonyl-L-valyl-N-[1-(2-[5-(3-methylbenzyl)-1,3,4-oxadiazolyl]carbonyl)-2-(S)-methylpropyl]-L-prolinamide], the Ki in data set [1] came to 0.14 nM. Besides, the concentration at 3 h in data set [3] (male, Sprague-Dawley, plasma) worked out at 0.19 µM.

For the compound `COC(=O)N[C@H](C(=O)N1CCC[C@H]1C(=O)N[C@H](C(=O)c1noc(Cc2cccc(C(F)(F)F)c2)n1)C(C)C)C(C)C` [CE2214, Methyloxycarbonyl-L-valyl-N-[1-(3-[5-(3 trifluoromethylbenzyl)-1,2,4-oxadiazolyl]carbonyl)-2-(S)-methylpropyl]-L-prolinamide], the inhibition constant Ki in data set [1] was 0.92 nM. The concentration at 3 h in data set [3] (male, Sprague-Dawley, plasma) came to 0 µM.

As to `Cc1cccc(Cc2nnc(C(=O)[C@@H](NC(=O)Cn3c(=O)ncc4ccccc43)C(C)C)o2)c1` [CE2215, 1,4-Quinazolin-2-one-N-[1-(2-[5-(3-methylbenzyl)-1,3,4-oxadiazolyl]carbonyl)-2-(S)-methylpropyl]acetamide], the Ki in data set [1] was 163 nM. Besides, the “Plasma Levels (μM) 1 hr” value in data set [3] (1 hr) came out at 1.16 µM. In data set [3], the “Plasma Levels (μM) 3 hr” value was found to be 0.83 µM. The “Plasma Levels (μM) 6 hr” value in data set [3] (6 hr) was determined as 0.63 µM.

Turning to `Cc1cccc(Cc2nnc(C(=O)[C@@H](NC(=O)CN3C(=O)N[C@@H](CC(C)C)C3=O)C(C)C)o2)c1` [CE2227, 4-(S)-(2-Isobutyl)-2,5-imidazolidinedione-N-[1-(2-[5-(3-methylbenzyl)-1,3,4-oxadiazolyl]carbonyl)-2-(S)-methylpropyl]acetamide], the Ki in data set [1] came out at 40 nM. Further, the “Plasma Levels (μM) 1 hr” value in data set [3] (1 hr) was 1.276 µM. Moreover, the “Plasma Levels (μM) 3 hr” value in data set [3] was determined as 0.74 µM. Also, in data set [3] (6 hr), the “Plasma Levels (μM) 6 hr” value stood at 0.962 µM.

`Cc1cccc(Cc2nnc(C(=O)[C@@H](NC(=O)CN3C(=O)NC4(CCCC4)C3=O)C(C)C)o2)c1` [CE2231, 4-Spirocyclopentane-2,5-imidazolidinedione-N-[1-(2-[5-(3-methylbenzyl)-1,3,4-oxadiazolyl]carbonyl)-2-(S)-methylpropyl]acetamide]: the Ki in data set [1] amounted to 16 nM. Also, the “Plasma Levels (μM) 1 hr” value in data set [3] (1 hr) worked out at 1.226 µM. For the same compound, the “Plasma Levels (μM) 3 hr” value in data set [3] was found to be 0.787 µM. Besides, in data set [3] (6 hr), the “Plasma Levels (μM) 6 hr” value came out at 0.531 µM.

Take `Cc1cccc(Cc2nnc(C(=O)[C@@H](NC(=O)CN(C(=O)[C@@H](NC(=O)OCc3ccccc3)C(C)C)c3ccccc3)C(C)C)o2)c1` [CE2232, Benzyloxycarbonyl-L-valyl-N-(phenyl)glycyl-N-[1-(2-[5-(3-methylbenzyl)-1,3,4-oxadiazolyl]carbonyl)-2-(S)-methylpropyl]amide]: the Ki in data set [1] was 0.15 nM. In data set [3] (male, Sprague-Dawley, plasma, 1 hr, read-out: Plasma Levels (μM) 1 hr), the concentration at 1 h is 0.44 µM. Besides, the concentration at 3 h in data set [3] (male, Sprague-Dawley, plasma) came out at 0.44 µM. Further, the concentration at 6 h in data set [3] (male, Sprague-Dawley, plasma, 6 hr, read-out: Plasma Levels (μM) 6 hr) was found to be 0.26 µM.

Consider “BTD-[1-(2-[5-(3-methylbenzyl)-1,3,4-oxadiazolyl]carbonyl)-2-(S)-methylpropyl]amide [CE2126]”, for which the Ki in data set [1] turned out to be 5 nM. In addition, the “Plasma Levels (μM) 3 hr” value in data set [3] turned out to be 0.161 µM.
